In patent publication US10239887B2, “Positive allosteric modulators of the muscarinic acetylcholine receptor M4” (Vanderbilt University, priority 2016, dated 2019):
Counter-ions that a name gives are not always drawn.

Molecular target: T1, human mAChR M4 (Homo sapiens, UniProt P08173)
T1 sequence (P08173 1-479): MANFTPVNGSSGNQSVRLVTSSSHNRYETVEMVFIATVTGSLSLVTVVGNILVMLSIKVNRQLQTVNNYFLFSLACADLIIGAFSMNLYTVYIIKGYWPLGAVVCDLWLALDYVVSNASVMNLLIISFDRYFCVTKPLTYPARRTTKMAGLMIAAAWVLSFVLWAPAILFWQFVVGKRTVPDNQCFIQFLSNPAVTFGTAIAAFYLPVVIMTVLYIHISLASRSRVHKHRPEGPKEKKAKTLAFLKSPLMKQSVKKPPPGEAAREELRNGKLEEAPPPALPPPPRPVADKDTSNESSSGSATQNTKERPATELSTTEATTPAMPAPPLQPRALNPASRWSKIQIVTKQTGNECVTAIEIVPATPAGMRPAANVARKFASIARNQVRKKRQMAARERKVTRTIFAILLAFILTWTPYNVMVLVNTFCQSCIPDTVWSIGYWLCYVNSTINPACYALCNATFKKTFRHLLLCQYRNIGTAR
Assay: mAChR M4 cell-based functional assay (calcium flux), human M4
Details: Table 10; for EC50: Human M4 EC50 (nM); for Emax: % ACh maximum at 30 μM

[1] = calcium flux, PAM activity with EC20 acetylcholine

EC50 [1] [nM] | Emax [%] | EC50 (unit μM (bounds)) [nM] | SMILES
1400 | 54.2 | – | Cc1cc(C)c2c(n1)sc1c(NCc3cnc(C)nc3)ncnc12 [Compound 205, 7,9-dimethyl-N-[(2-methylpyrimidin-5-yl)methyl]pyrido[3′,2′:4,5] thieno[3,2-d] pyrimidin-4-amine]
910 | 75.8 | – | Cc1cc(C)c2c(n1)sc1c(NCc3ccc(C(C)(C)O)cc3)ncnc12 [Compound 206, 2-[4-[[(7,9-dimethylpyrido [3′,2′:4,5]thieno[3,2-d]pyrimidin-4-yl)amino]methyl]phenyl]propan-2-ol]
6550 | 51.5 | – | Cc1cc(C)c2c(n1)sc1c(NC3CN(c4ncc(C(F)(F)F)cn4)C3)ncnc12 [Compound 207, 7,9-dimethyl-N-[1-[5-(trifluoromethyl)pyrimidin-2-yl]azetidin-3-yl]pyrido[3′,2′:4,5] thieno[3,2-d]pyrimidin-4-amine]
462 | 75.4 | – | Cc1cc(C)c2c(n1)sc1c(NC3CN(c4ccnc(C5(O)CCC5)c4)C3)ncnc12 [Compound 208, 1-[4-[3-[(7,9-dimethylpyrido [3′,2′:4,5]thieno[3,2-d]pyrimidin-4-yl)amino]azetidin-1-yl]-2-pyridyl]cyclobutanol]
44.6 | 65.1 | – | Cc1c(Cl)nnc2sc3c(NC4CCC4)ncnc3c12 [Compound 210, 3-chloro-N-cyclobutyl-4-methyl-pyrimido [4′,5′:4,5]thieno[2,3-c] pyridazin-8-amine]
420 | 105 | – | Cc1c(Cl)nnc2sc3c(NC4CN(c5ncc(C(F)(F)F)cn5)C4)ncnc3c12 [Compound 214, 3-chloro-4-methyl-N-[1-[5-(trifluoromethyl)pyrimidin-2-yl]azetidin-3-yl] pyrimido[4′,5′:4,5] thieno[2,3-c]pyridazin-8-amine]
555 | 47.8 | – | Cc1c(Cl)cnc2sc3c(N4CC5CC5C4)ncnc3c12 (centres unmarked) [Compound 219, 4-(3-azabicyclo[3.1.0]hexan-3-yl)-8-chloro-9-methyl-pyrido [3′,2′:4,5]thieno[3,2-d] pyrimidine]
102 | 57.6 | – | Cc1c(Cl)cnc2sc3c(N4CC(c5ccncc5)C4)ncnc3c12 [Compound 224, 8-chloro-9-methyl-4-[3-(4-pyridyl)azetidin-1-yl]pyrido [3′,2′:4,5]thieno[3,2-d] pyrimidine]
841 | 63 | – | Cc1c(Cl)cnc2sc3c(NC4CN(c5ncc(F)cn5)C4)ncnc3c12 [Compound 225, 8-chloro-N-[1-(5-fluoropyrimidin-2-yl)azetidin-3-yl]-9-methyl-pyrido [3′,2′:4,5]thieno[3,2-d] pyrimidin-4-amine]
481 | 49 | – | Cc1c(Cl)cnc2sc3c(NC4(C)CC4)ncnc3c12 [Compound 226, 8-chloro-9-methyl-N-(1-methylcyclopropyl) pyrido[3′,2′:4,5]thieno [3,2-d]pyrimidin-4-amine]
665 | 56.2 | – | Cc1c(Cl)cnc2sc3c(NC4CC4(C)C)ncnc3c12 (centres unmarked) [Compound 227, 8-chloro-N-(2,2-dimethylcyclopropyl)-9-methyl-pyrido[3′,2′:4,5] thieno[3,2-d] pyrimidin-4-amine]
3230 | 70 | – | Cc1c(Cl)cnc2sc3c(NC4CCC4)ncnc3c12 [Compound 228, 8-chloro-N-cyclobutyl-9-methyl-pyrido [3′,2′:4,5]thieno[3,2-d] pyrimidin-4-amine]
3710 | 44.3 | – | Cc1c(Cl)cnc2sc3c(NC4CN(c5cc(Cl)ncc5Cl)C4)ncnc3c12 [Compound 231, 8-chloro-N-[1-(2,5-dichloro-4-pyridyl)azetidin-3-yl]-9-methyl-pyrido [3′,2′:4,5]thieno[3,2-d] pyrimidin-4-amine]
5510 | 40.6 | – | Cc1c(Cl)cnc2sc3c(NCc4ccc5c(c4)CC(C)(C)O5)ncnc3c12 [Compound 233, 8-chloro-N-[(2,2-dimethyl-3H-benzofuran-5-yl)methyl]-9-methyl-pyrido [3′,2′:4,5]thieno[3,2-d] pyrimidin-4-amine]
2890 | 31.8 | – | Cc1c(Cl)cnc2sc3c(NCc4cnc5c(c4)CCC5)ncnc3c12 [Compound 235, 8-chloro-N-(6,7-dihydro-5H-cyclopenta[b]pyridin-3-ylmethyl)-9-methyl-pyrido [3′,2′:4,5]thieno[3,2-d] pyrimidin-4-amine]
5660 | 61.2 | – | COc1ccc(C2CC2Nc2ncnc3c2sc2ncc(Cl)c(C)c23)cc1 (centres unmarked) [Compound 236, 8-chloro-N-[2-(4-methoxyphenyl)cyclopropyl]-9-methyl-pyrido [3′,2′:4,5]thieno[3,2-d] pyrimidin-4-amine dihydrochloride]
1920 | 72.3 | – | Cc1nc2sc3c(NC4CN(c5ccnc(C6(O)CCC6)c5)C4)ncnc3c2c(C)c1Cl [Compound 239, 1-[4-[3-[(8-chloro-7,9-dimethyl-pyrido [3′,2′:4,5]thieno[3,2-d]pyrimidin-4-yl)amino]azetidin-1-yl]-2-pyridyl]cyclobutanol]

Second part, the compound before the results:

SMILES | EC50 [1] [nM] | Emax [%] | EC50 (unit μM (bounds)) [nM]
Cc1c(Cl)nnc2sc3c(N4CCCC4)ncnc3c12 [Compound 209, 3-chloro-4-methyl-8-pyrrolidin-1-yl-pyrimido[4′,5′:4,5] thieno[2,3-c]pyridazine] | 55.5 | 89.9 | –
Cc1c(Cl)nnc2sc3c(NCc4ccc(OC(F)F)nc4)ncnc3c12 [Compound 211, 3-chloro-N-[[6-(difluoromethoxy)-3-pyridyl]methyl]-4-methyl-pyrimido [4′,5′:4,5]thieno[2,3-c] pyridazin-8-amine] | 787 | 68.5 | –
COc1ccc(CNc2ncnc3c2sc2nnc(Cl)c(C)c23)cc1F [Compound 212, 3-chloro-N-[(3-fluoro-4-methoxy-phenyl)methyl]-4-methyl-pyrimido[4′,5′:4,5] thieno[2,3-c]pyridazin-8-amine] | 405 | 80 | –
Cc1c(Cl)nnc2sc3c(NCc4ccc(C(C)(C)O)cc4)ncnc3c12 [Compound 213] | – | 97.3 | –
Cc1c(Cl)cnc2sc3c(N4CCCC4)ncnc3c12 [Compound 215, 8-chloro-9-methyl-4-pyrrolidin-1-yl-pyrido [3′,2′:4,5]thieno[3,2-d] pyrimidine] | 5980 | 45 | –
Cc1c(Cl)cnc2sc3c(N4CCC(F)(F)C4)ncnc3c12 [Compound 216, 8-chloro-4-(3,3-difluoropyrrolidin-1-yl)-9-methyl-pyrido [3′,2′:4,5]thieno[3,2-d] pyridimidine] | 685 | 52.4 | –
COCC1CN(c2ncnc3c2sc2ncc(Cl)c(C)c23)C1 [Compound 218, 8-chloro-4-[3-(methoxymethyl)azetidin-1-yl]-9-methyl-pyrido [3′,2′:4,5]thieno[2,3-d] pyrimidine] | 1020 | 51.3 | –
Cc1c(Cl)cnc2sc3c(N4CCC(F)C4)ncnc3c12 (centres unmarked) [Compound 220, 8-chloro-4-(3-fluoropyrrolidin-1-yl)-9-methyl-pyrido [3′,2′:4,5]thieno[3,2-d] pyrimidine] | 885 | 63.8 | –
Cc1c(Cl)cnc2sc3c(N4CCC4)ncnc3c12 [Compound 221, 4-(azetidin-1-yl)-8-chloro-9-methyl-pyrido[3′,2′:4,5] thieno[3,2-d] pyrimidine] | 867 | 40.6 | –
Cc1c(Cl)cnc2sc3c(N4CC(F)(F)C4)ncnc3c12 [Compound 223, 8-chloro-4-(3,3-difluoroazetidin-1-yl)-9-methyl-pyrido [3′,2′:4,5]thieno[3,2-d] pyrimidine] | 931 | 44 | –
Cc1c(Cl)cnc2sc3c(NCc4ccc(C(=O)N(C)C)cc4)ncnc3c12 [Compound 229, 4-[[(8-chloro-9-methyl-pyrido [3′,2′:4,5]thieno[3,2-d]pyrimidin-4-yl)amino]methyl]-N,N-dimethyl-benzamide] | 1920 | 54.5 | –
COc1cc(CNc2ncnc3c2sc2ncc(Cl)c(C)c23)cc(OC)c1 [Compound 230, 8-chloro-N-[(3,5-dimethoxyphenyl)methyl]-9-methyl-pyrido [3′,2′:4,5]thieno[3,2-d] pyrimidin-4-amine] | – | 37.3 | > 10000
Cc1c(Cl)cnc2sc3c(NCc4ccc(CN5CCOCC5)cc4)ncnc3c12 [Compound 232, 8-chloro-9-methyl-N-[[4-(morpholinomethyl)phenyl]methyl]pyrido [3′,2′:4,5]thieno[3,2-d] pyrimidin-4-amine] | 9780 | 69.8 | –
Cc1c(Cl)cnc2sc3c(NCc4ccc5c(c4)COC5)ncnc3c12 [Compound 234, 8-chloro-N-(1,3-dihydroisobenzofuran-5-ylmethyl)-9-methyl-pyrido [3′,2′:4,5]thieno[3,2-d] pyrimidin-4-amine] | 5580 | 56.1 | –
Cc1c(Cl)cnc2sc3c(NCc4ccc(S(C)(=O)=O)cc4)ncnc3c12 [Compound 237, 8-chloro-9-methyl-N-[(4-methylsulfonylphenyl)methyl]pyrido [3′,2′:4,5]thieno[3,2-d] pyrimidin-4-amine dihydrochloride] | 1320 | 54.5 | –
Cc1ncc(CNc2ncnc3c2sc2ncc(Cl)c(C)c23)cn1 [Compound 238, 8-chloro-9-methyl-N-[(2-methylpyrimidin-5-yl)methyl]pyrido [3′,2′:4,5]thieno[3,2-d] pyrimidin-4-amine dihydrochloride] | 382 | 61 | –
